This is an account of results in patent EP3298025B1, “NEW AMINO ACID SEQUENCES WITH MI[…] DERIVED FROM NAJA ATRA CARDIOTOXIN 1 (CTX-1)” (Università degli Studi di Parma, priority 2015, dated 2016).

SMILES strings stand for the structures. Where “and” joins values, the source holds several entries; their conditions need not be identical. Identical values can stand only once. Residues, ends and D or L forms follow the SMILES beside them.

One data set concerns MRSA ATCC 43400. Briefly: micro-dilution in liquid medium and transplant on solid medium, Gram-positive bacteria. The format is cell-based, Staphylococcus aureus. Particulars: 2 hours at 37°C, transplant on agar. How it is done: (§1) For each bacterial strain 3-5 morphologically similar colonies from fresh cultures were taken and inoculated in Brain Heart Infusion broth, then incubated at 37°C in agitation at 225 r.p.m. for about 3-4 hours. Then the bacterial suspension was centrifuged at 1000 G for 20 minutes and the pellet resuspended in phosphate buffer pH 7, 10 mM. The turbidity of the bacterial suspension was measured using a spectrophotometer with absorbance of 600 nm; the range 0,08-0,13 equates to about 10^8 cfu/ml. The bacterial suspension was diluted 1:100 in phosphate buffer 10mM to obtain a bacterial concentration of about 10^6 cfu/ml. Within 30 minutes 50 µl of the suspension 10^6 cfu/ml were inoculated in each well of the microtiter plate, to obtain a bacterial concentration of about 5x10^5 cfu/ml.
The peptides ability to inhibit the bacterial growth in liquid cultures was tested. 50 µl of each peptides solutions of about 0.2-50 µM were added in microtiter plates with 96 wells with liquid culture medium and one of these bacterial strains: Staphylococcus aureus ATCC 25923, MRSA ATCC 43300, Streptococcus agalactiae ATCC 13813 and Enterococcus hirae ATCC 10541. […]
The bacterial suspension and differing peptides concentrations were put in contact for about 2 hours at 37°C. […] After an incubation time of 24 hours at 37°C, the bacterial colonies (cfu) were counted.
For orientation: In broth dilution the organism is exposed to a series of concentrations in liquid medium.

The test system of data set [1] is epithelial MDBK cells (Madin Darby Bovine Kidney). As to the kind of experiment: cytotoxicity against eukaryotic cells, Trypan Blue. The format is cell-based. Particulars: overnight incubation. How it is done: Peptides cytotoxicity against epithelial MDBK cells (Madin Darby Bovine Kidney) was determined using cell cultures of about 5x10^5 cells/ml with and without peptides, with overnight incubation at 37°C with CO2. The negative control was in medium without peptide; positive control was in medium with 0.2% of Triton x100, to completely lyse cells. Cells vitality was assessed adding every well with 20 µl of Trypan Blue, incubating other 5 minutes at 37°C. MCC10 was the minimal peptide concentration with 10% of cytotoxicity.

Data set [2] relates to Gram-negative tested bacteria. Briefly: micro-dilution and transplant on agar, summary over Gram-negative panel. The note with it: almost all Gram-negative tested bacteria. The format is cell-based. How it is done: as §1, with “range 0.08-0.13” for “range 0,08-0,13”, “suspension (10^6 cfu/ml)” for “suspension 10^6 cfu/ml”
The peptides ability to inhibit the bacterial growth in liquid cultures was tested. 50 µl of each peptides solutions of about 0,2-50 µM were added in microtiter plates with 96 wells with U-shaped bottom, containing the liquid culture medium and one of these bacterial strains: E coli ATCC 25922, Pseudomonas. […]
The bacterial suspension and peptides were put in contact for 2 hours at 37°C, with differing concentrations of the peptide. […] After an incubation time of 24 hours at 37°C, the bacterial colonies (cfu) were counted.

The test system of another data set is tested fungal strains. As to the kind of experiment: micro-dilution and transplant on solid medium, summary over yeast panel. The format is cell-based. The note with it: over Candida albicans ATCC 10231, Candida glabrata ATCC 2001 and Malassetia pachydermatis ATCC 14522. How it is done: Candida albicans ATCC 10231, Candida glabrata ATCC 2001 and Malassetia pachydermatis ATCC 14522 were cultivated in Czapek-Dox broth (DIFCO) medium for 48-72 hours. On the day of the test the fungal culture was centrifuged at 1700G for 15 minutes and the pellet resuspended in phosphate buffer, then put in agitation on an electric vortex to disrupt fungal cell aggregations. The suspension was diluted to get a final optical density of 0,5 of the McFarland scale (about 1-5x10^6 cell/ml) (Branda J.A., Krantz A. Effect of yeast on automated cell counting. Am J Clin Pathol., 2006:126, 248-254.).
Peptides ability to inhibit the fungal growth in liquid cultures was tested. 50 µl of each peptides solutions of about 0.2-50 µM were added in microtiter plates with 96 wells with U-shaped bottom, with liquid culture medium and one of these fungi: Candida albicans ATCC 10231, Candida glabrata ATCC 2001 and Malassetia pachydermatis ATCC 14522. After 2 hours of incubation at 37°C, fungal suspensions were plated on solid culture medium, agar Sabouraud. Fungal cultures were cultivated without peptides as growth control.
the fungal suspension and peptides at differing concentrations were in contact for about 2 hours at 37°C. […] After an incubation time of 24 hours at 37°C, the fungal colonies (cfu) were counted.

Regarding `CC[C@H](C)[C@H](NC(=O)[C@H](CCCCN)NC(=O)[C@H](Cc1ccc(O)cc1)NC(=O)[C@H](CS)NC(=O)[C@H](CC(C)C)NC(=O)[C@H](CC(N)=O)NC(=O)[C@H](CCCCN)NC(=O)CNC(=O)[C@H](C)NC(=O)[C@@H]1CCCN1C(=O)[C@H](CS)NC(=O)[C@@H](NC(=O)[C@H](CCCCN)NC(=O)[C@H](CO)NC(=O)[C@H](C)NC(=O)[C@@H](NC(=O)[C@@H]1CCCN1C(=O)[C@@H](NC(=O)[C@H](CC(C)C)NC(=O)[C@@H](N)CCCCN)[C@@H](C)CC)[C@@H](C)CC)[C@@H](C)O)C(=O)O` [NCP-0, K LIPIA SKT CPA GKN LCY KI] (H-KLIPIASKTCPAGKNLCYKI-OH; N-terminus and C-terminus assumed), in the data set on MRSA ATCC 43400, the LD90 was > 100 µg/ml and > 46.3 µM. Besides, the LD99 in the data set with MRSA ATCC 43400 was > 200 µg/ml and > 92.6 µM; in the data set with tested fungal strains, > 150 µg/ml and > 69.2 µM. Further, the “Cytotoxicity: cell number percentage reduction in comparison with control” value in data set [1] (peptide 12.5 µg/ml) is 4%; in data set [1] (peptide 100 µg/ml), 6%. Further, the antimicrobial activity result in data set [2] was “scarcely active”.
